Assay results taken from PMC9963409, “Structural Insight into Catalysis by the Flavin-Dependent NADH Oxidase (Pden_5119) of Paracoccus denitrificans” (International Journal of Molecular Sciences, 2023).

What was measured:
[1] = target: T1, Pden_5119 (Paracoccus denitrificans, UniProt A1BCD5, R116A); test: stopped-flow reduction of enzyme-bound FMN at […] nm, hyperbolic fit of kobs; type: biochemical; settings: anaerobic reductive half-reaction of enzyme-FMN complex; rapid-equilibrium binding step; 0.1 M sodium phosphate pH 7.3; 10 °C; read-out: KNADH
T1 construct: C-terminal His6 tag kept, expressed in E. coli BL21(DE3)pLysS; subunit 20596 g/mol; dimer in solution; contains no cysteine
T1 sequence (A1BCD5 entry or part of it R116A): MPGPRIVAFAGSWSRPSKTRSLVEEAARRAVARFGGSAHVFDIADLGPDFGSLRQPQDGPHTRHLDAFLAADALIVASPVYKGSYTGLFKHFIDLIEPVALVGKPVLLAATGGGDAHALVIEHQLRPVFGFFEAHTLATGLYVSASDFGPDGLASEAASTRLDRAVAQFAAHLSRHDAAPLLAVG

[2] = target: T2, Pden_5119 (Paracoccus denitrificans, UniProt A1BCD5, H117A); test: as above; type: biochemical; settings: anaerobic reductive half-reaction of enzyme-FMN complex; rapid-equilibrium binding step; 0.1 M sodium phosphate pH 7.3; 10 °C; read-out: KNADH
T2 construct: C-terminal His6 tag kept, expressed in E. coli BL21(DE3)pLysS; subunit 20596 g/mol; dimer in solution; contains no cysteine
T2 sequence (A1BCD5 entry or part of it H117A): as the sequence (A1BCD5 entry or part of it R116A) above, with A116R, H117A counted along it

[3] = target: T3, Pden_5119 (Paracoccus denitrificans, UniProt A1BCD5, K82A); test: as above; type: biochemical; settings: anaerobic reductive half-reaction of enzyme-FMN complex; rapid-equilibrium binding step; 0.1 M sodium phosphate pH 7.3; 10 °C; read-out: KNADH
T3 construct: C-terminal His6 tag kept, expressed in E. coli BL21(DE3)pLysS; subunit 20596 g/mol; dimer in solution; contains no cysteine
T3 sequence (A1BCD5 entry or part of it K82A): as the sequence (A1BCD5 entry or part of it R116A) above, with K82A, A116R counted along it

[4] = target: T4, Pden_5119 (Paracoccus denitrificans, UniProt A1BCD5); test: as above; type: biochemical; settings: anaerobic reductive half-reaction of enzyme-FMN complex; rapid-equilibrium binding step; 0.1 M sodium phosphate pH 7.3; 10 °C; read-out: KNADH
T4 construct: C-terminal His6 tag kept, expressed in E. coli BL21(DE3)pLysS; subunit 20596 g/mol; dimer in solution; contains no cysteine

[5] = target: T5, Pden_5119 (Paracoccus denitrificans, UniProt A1BCD5, R116K); test: as above; type: biochemical; settings: anaerobic reductive half-reaction of enzyme-FMN complex; rapid-equilibrium binding step; 0.1 M sodium phosphate pH 7.3; 10 °C; read-out: KNADH
T5 construct: C-terminal His6 tag kept, expressed in E. coli BL21(DE3)pLysS; subunit 20596 g/mol; dimer in solution; contains no cysteine
T5 sequence (A1BCD5 entry or part of it R116K): as the sequence (A1BCD5 entry or part of it R116A) above, with A116K counted along it

[6] = target: T5, Pden_5119; test: intrinsic protein fluorescence quenching titration; type: binding; settings: read-out: Kd^FMN
Source text: (§1) intrinsic protein fluorescence quenching titration on Pden_5119

[7] = target: T2, Pden_5119; test: intrinsic protein fluorescence quenching titration; type: binding; settings: read-out: Kd^FMN
Source text: as §1

[8] = target: T4, Pden_5119; test: intrinsic protein fluorescence quenching titration; type: binding; settings: read-out: Kd^FMN
Source text: as §1

[9] = target: T1, Pden_5119; test: intrinsic protein fluorescence quenching titration; type: binding; settings: read-out: Kd^FMN
Source text: as §1

[10] = target: T3, Pden_5119; test: intrinsic protein fluorescence quenching titration; type: binding; settings: read-out: Kd^FMN
Source text: as §1

[11] = target: the molecule itself; test: SAXS; protein at 1.5 mg/mL (73 μM in monomer); ab initio envelope (DAMMIN) and CRYSOL fit of a dimeric homology model to the scattering curve

Q: Which Kd [1] does the source give for `NC(=O)C1=CN([C@@H]2O[C@H](COP(=O)(O)OP(=O)(O)OC[C@H]3O[C@@H](n4cnc5c(N)ncnc54)[C@H](O)[C@@H]3O)[C@@H](O)[C@H]2O)C=CC1` [NADH] here?
A: The Kd was 39 ± 17 µM.

Q: And the Kd [2]?
A: The Kd was 40 ± 7 µM.

Q: What about the Kd [3] of the same molecule?
A: Its Kd is 53 ± 18 µM.

Q: What about the Kd [4] of the same molecule?
A: Its Kd is 19 ± 1 µM.

Q: And the Kd [5]?
A: The Kd was 20 ± 4 µM.

Q: With `Cc1cc2nc3c(=O)[nH]c(=O)nc-3n(C[C@H](O)[C@H](O)[C@H](O)COP(=O)(O)O)c2cc1C` [FMN] as the molecule, how does the Kd [6] read?
A: Its Kd is 0.6 ± 0.1 µM.

Q: And the Kd [7]?
A: Its Kd is 9.1 ± 0.6 µM.

Q: What about the Kd [8] of the same molecule?
A: The Kd was 3.8 ± 0.4 µM.

Q: And the Kd [9]?
A: The Kd was 3.5 ± 1.5 µM.

Q: And the Kd [10]?
A: The Kd was 6.8 ± 3.4 µM.

B1: Pden_5119 protein (flavin-dependent NADH oxidase of Paracoccus denitrificans) (enzyme)
chain: MPGPRIVAFAGSWSRPSKTRSLVEEAARRAVARFGGSAHVFDIADLGPDFGSLRQPQDGPHTRHLDAFLAADALIVASPVYKGSYTGLFKHFIDLIEPVALVGKPVLLAATGGGDRHALVIEHQLRPVFGFFEAHTLATGLYVSASDFGPDGLASEAASTRLDRAVAQFAAHLSRHDAAPLLAVG
notes: Pden_5119, product of the gene pden_5119 of Paracoccus denitrificans; subunit molar mass 20 596 g/mol; 15 histidines per monomer including the tag; also called wild-type; not shown: His6, C-terminal, kept
Q: With B1 as the molecule, how does the “stoichiometry N” value [11] read?
A: Its value is 2.
